Where two headings read alike, the source gives them in different places.
Assays:
CHO-K1 cells = assay: SRB cell viability (cytotoxicity), CHO-K1; format: cell-based; details: Cricetulus griseus, CHO-K1 nonmalignant cells, read-out: IC50 ± SEM CHO
Description: (§1) Human colon cancer cell lines (SW480 and SW620), together with nonmalignant cells (CHO-K1 and HaCaT) were used to study the biological activity. Cells were purchased from the European Collection of Authenticated Cell Cultures (ECACC, UK). Dulbecco’s Modified Eagle Medium (DMEM) containing heat-inactivated (56 °C) horse serum (10%), non-essential amino acids (1%) and antibiotics (penicillin/streptomycin, 1%) (Gibco Invitrogen, Carlsbad, CA, USA) was used to maintain the cells, reducing the horse serum to 3%, and, adding insulin ([…]), transferrin ([…]) and selenium (5 ng/mL) (ITS-defined medium; Gibco, Invitrogen, Carlsbad, CA, USA) for all the experiments.
(§2) The colorimetric test with Sulforhodamine B (SRB) was used to evaluate cell viability. Cell density was adjusted to seed 20.000 cells/well in 96-well tissue culture plates. Cells were first incubated for 24 h and then treated with the synthesized hybrids, the lead compounds (PIH and resveratrol), and the reference drug (5-FU) (concentrations between 0.01 and 200 µM), using DMSO (below 1%) as vehicle control. The optimum conditions were 37 °C and 5% CO2. After the end of each treatment, cold trichloroacetic acid (MERCK, 50% v/v) was added and preserved for one hour at 4 °C, to fix the cells. Then, cell proteins were stained with 0.4% (w/v) SRB (Sigma-Aldrich, St. Louis, MO, USA), and subsequently washed with acetic acid (1%) to remove unbound SRB. After air-drying, protein-bound SRB was solubilized in 10 mM Tris-base before reading the absorbance at 492 nm in a microplate reader (Mindray MR-96A). All experiments were performed at least three times.

HaCaT cells = assay: SRB cell viability (cytotoxicity), HaCaT; format: cell-based; details: Homo sapiens, HaCaT nonmalignant cells, read-out: IC50 ± SEM HACAT
Description: as §1, §2

SW480 cells = assay: SRB cell viability (cytotoxicity), SW480; format: cell-based, human; details: for IC50: Homo sapiens, SW480, SRB, read-out: IC50 ± SEM SW480; for Selectivity Index SI1: CHO-K1/SW480 IC50 ratio; for Selectivity Index SI2: HaCaT/SW480 IC50 ratio
Description: as §1, §2

SW620 cells = assay: SRB cell viability (cytotoxicity), SW620; format: cell-based, human; details: for IC50: Homo sapiens, SW-620, SRB, read-out: IC50 ± SEM SW620; for Selectivity Index SI3: CHO-K1/SW620 IC50 ratio; for Selectivity Index SI4: HaCaT/SW620 IC50 ratio
Description: as §1, §2

EC9706 cells = system: EC9706 cells; set-up: method as in PMID 29475156; details: EC9706 esophageal carcinoma cells; read-out: IC50 antiproliferative activity; cited from earlier work
EC109 cells = system: EC109 cells; set-up: method as in PMID 29475156; details: EC109 esophageal carcinoma cells; read-out: IC50 antiproliferative activity; cited from earlier work
HCT 116 cell line = details: read-out: IC50 antiproliferative activity; cited from earlier work

Compound	IC50 (CHO-K1 cells; 24 H)	IC50 (CHO-K1 cells; 48 H)	IC50 (HaCaT cells; 24 H)	IC50 (HaCaT cells; 48 H)	IC50 (SW480 cells; 24 H)	IC50 (SW480 cells; 48 H)	IC50 (SW620 cells; 24 H)	IC50 (SW620 cells; 48 H)	IC50 (EC9706 cells)	IC50 (EC109 cells)	Selectivity Index SI1 (SW480 cells; 24 H)	Selectivity Index SI2 (SW480 cells; 24 H)	Selectivity Index SI1 (SW480 cells; 48 H)	Selectivity Index SI2 (SW480 cells; 48 H)	Selectivity Index SI3 (SW620 cells; 24 H)	Selectivity Index SI4 (SW620 cells; 24 H)	Selectivity Index SI3 (SW620 cells; 48 H)	Selectivity Index SI4 (SW620 cells; 48 H)	melting point	IC50 (HCT 116 cell line)
COc1ccc(C(=O)N/N=C/c2c(O)cc(O)cc2/C=C/c2ccc(O)cc2)cc1OC [6g, N′-((E)-2,4-dihydroxy-6-((E)-4-hydroxystyryl)benzylidene)-3,4-dimethoxybenzohydrazide]	33.2 ± 1.99 µM	17.2 ± 2 µM	63.7 ± 5.27 µM	17.7 ± 0.5 µM	37 ± 2.24 µM	20.2 ± 2.7 µM	191 ± 13 µM	40.3 ± 2.7 µM												
CCOc1cccc(/C=N/NC(=O)c2cccc(S(=O)(=O)N3CCOCC3)c2)c1O [I]									1.09 ± 0.03 µM	2.79 ± 0.45 µM										
COc1cccc(C(=O)N/N=C/c2c(O)cc(O)cc2/C=C/c2ccc(O)cc2)c1 [6a, N′-((E)-2,4-dihydroxy-6-((E)-4-hydroxystyryl)benzylidene)-3-methoxybenzohydrazide]	28.4 ± 1.48 µM	13 ± 1.3 µM	47.5 ± 1.15 µM	2.2 ± 0.2 µM	33 ± 2.13 µM	24.9 ± 2.8 µM	172 ± 9 µM	41.5 ± 1.2 µM			0.86	1.44	0.52	0.09	0.16	0.28	0.31	0.05	248 to 250 °C	
Oc1ccc(/C=C/c2cc(O)cc(O)c2)cc1 [RESV, resveratrol]		64 ± 8.9 µM	> 200 µM	20.2 ± 2.7 µM			> 200 µM				0.77	1.49	0.52	0.16	0.22	0.42	0.45	0.14		
COc1cccc(C(=O)N/N=C/c2c(O)cc(O)cc2/C=C/c2ccc(O)cc2)c1OC [6d, N′-((E)-2,4-dihydroxy-6-((E)-4-hydroxystyryl)benzylidene)-2,3-dimethoxybenzohydrazide]	35.5 ± 2.36 µM	22.4 ± 2.7 µM	49.7 ± 1.96 µM	2.95 ± 0.2 µM	34.8 ± 3.31 µM	20.5 ± 1.9 µM	171 ± 8.7 µM	49.9 ± 2.1 µM												
O=C(N/N=C/c1c(O)cc(O)cc1/C=C/c1ccc(O)cc1)c1ccc(F)cc1 [6c, N′-((E)-2,4-dihydroxy-6-((E)-4-hydroxystyryl)benzylidene)-4-fluorobenzohydrazide]	22.6 ± 2.38 µM	12 ± 1.6 µM	32.8 ± 1.33 µM	14.6 ± 0.8 µM	29.2 ± 3.55 µM	10.8 ± 2 µM	57.7 ± 3.6 µM	12.5 ± 1 µM			0.77	1.12	1.11	1.35	0.39	0.57	0.96			
COc1cc(OC)cc(C(=O)N/N=C/c2c(O)cc(O)cc2/C=C/c2ccc(O)cc2)c1 [6h, N′-((E)-2,4-dihydroxy-6-((E)-4-hydroxystyryl)benzylidene)-3,5-dimethoxybenzohydrazide]	22.8 ± 1.31 µM	14 ± 1.2 µM	43.2 ± 4.02 µM	4.5 ± 0.6 µM	29.1 ± 1.31 µM	7.2 ± 2 µM	126 ± 20.9 µM	26 ± 3.2 µM												
O=C(N/N=C/c1ccccc1OCc1ccccc1)c1ccncc1 [C]																				3.1 µM
COc1ccc(OC)c(C(=O)N/N=C/c2c(O)cc(O)cc2/C=C/c2ccc(O)cc2)c1 [6f, N′-((E)-2,4-dihydroxy-6-((E)-4-hydroxystyryl)benzylidene)-2,5-dimethoxybenzohydrazide]	22.7 ± 2.25 µM	15.9 ± 1.6 µM	42.2 ± 5.9 µM	14.9 ± 1.3 µM	23.4 ± 1.31 µM	12.2 ± 1.2 µM	> 200 µM	99.4 ± 6.9 µM			0.97	1.80	1.30	1.22	0.11	0.21	0.16	0.15	260 to 262 °C	
O=C(N/N=C/c1c(O)ccc2ccccc12)c1ccncc1 [D]																				0.29 µM
O=c1[nH]cc(F)c(=O)[nH]1 [5-FU, 5-fluorouracil, reference compound]			> 1000 µM								0.35		0.99	0.68	0.59		0.96	0.66		5 µM
NC(=S)N/N=C/c1c(O)cc(O)cc1/C=C/c1ccc(O)cc1 [compound 8, 2-((E)-2,4-dihydroxy-6-((E)-4-hydroxystyryl)benzylidene)hydrazine-1-carbothioamide]	41.9 ± 2.83 µM	36.7 ± 3.8 µM	60.1 ± 3.99 µM	31.8 ± 1.4 µM	41 ± 3.93 µM	41.2 ± 2.3 µM	102 ± 3.5 µM	64.1 ± 2.9 µM			1.02	1.47	0.89	0.77	0.41	0.59	0.57	0.50	242 to 244 °C	
Cc1ncc(CO)c(/C=N/NC(=O)c2ccncc2)c1O [PIH, pyridoxal isonicotinoyl hydrazone, reference compound]	> 200 µM	75.3 ± 6.4 µM	> 200 µM	101 ± 10.8 µM	> 200 µM	112 ± 5.9 µM	> 200 µM	119 ± 7 µM			1.10	0.86	0.67	0.90	1.53	1.19	0.63	0.85		
COc1ccc(C(=O)N/N=C/c2c(O)cc(O)cc2/C=C/c2ccc(O)cc2)cc1 [6b, N′-((E)-2,4-dihydroxy-6-((E)-4-hydroxystyryl)benzylidene)-4-methoxybenzohydrazide]	23.4 ± 1.83 µM	14.4 ± 1.7 µM	36.9 ± 3.53 µM	13.9 ± 0.7 µM	36.1 ± 1.97 µM	11.3 ± 2.3 µM	160 ± 9.4 µM	37.6 ± 2.9 µM												

— article PMC9694494, “Resveratrol/Hydrazone Hybrids: Synthesis and Chemopreventive Activity against Colorectal Cancer Cells” (Pharmaceutics, 2022)
